# Test results as given in US11304927B2, “Bioactive extract, fraction of Cassia occidentalis and formulation thereof for bone regeneration” (COUNCIL OF SCIENTIFIC AND INDUSTRIAL RESEARCH, priority 2018, dated 2022).
# What was measured:
# [1] = tested on: type 1 collagen (col1) mRNA; assay: qPCR osteogenic gene expression in rat calvarial osteoblast; type: cell-based; settings: mRNA by qPCR, 48 h, active concentration of the compounds
# [2] = tested on: Rat calvarial osteoblasts (RCO); assay: Alkaline phosphatase (ALP) assay, osteoblast differentiation; type: cell-based; settings: 48 h, ALP activity
# Method: Calvaria from ten to twelve 1-2 day old rat pups were harvested, cleaned, and subjected to five sequential enzymatic digestions (0.1% diaspase and 0.1% collagenase I) of 10-15 min each. Cells from second to fifth digestion were collected, centrifuged, re-suspended and cultured in α-MEM containing 10% fetal bovine serum (FBS) and 1% penicillin/streptomycin (complete growth medium).
# For ALP assay, RCO were trypsinized at 80% confluence and 2×10^3 cells/well were seeded onto 24-well plates. Cells were treated with different compounds isolated from extract & vehicle for 48 h in α-MEM supplemented with 10 mM β-glycerophosphate, […] and 1% penicillin/streptomycin (osteoblast differentiation medium).
# At the end of the experiment, cells were washed with PBS, freeze fractured by placing the plates at −70° C. for 15 minutes followed by bringing to room temperature. ALP activity was measured by adding 100 µl p-nitrophenylphosphate buffer (2 mg/ml pNPP and 0.25 mM MgCl2 in 1 M diethanolamine). The absorption was measured at 405 nm with a microplate reader.
# osteopenic mice = assay: Osteopenic (OVX) mice model; type: in vivo, balb/c mice
# Method: 50 adult female balb/c mice (20±3 g, 10-12 months) underwent either sham surgery or ovariectomy (OVX). 6 weeks post-surgery, mice were scanned using μCT to ensure development of osteopenia. Treatments of 219/[…] (5 mg/kg), 219/[…] (1 mg/kg and 5 mg/kg), PTH (40 μg/kg) and vehicle (water) were given to OVX mice with osteopenia for another 6 weeks, and vehicle treatment was given to sham operated mice for the same duration (n=10/group). After 6 weeks all mice were sacrificed and bones were collected for further experiment. A high-resolution X-ray micro-computed tomographic (μCT) for two-dimensional (2D) and three-dimensional (3D) assessment of bones (excised bones) were carried out using a Sky Scan 1076 μCT scanner (SkyScan, Ltd, Kartuizersweg, Kontich, Belgium). Briefly, after scanning bone samples at a nominal resolution (pixels) of 9 μm, cross-sectional reconstruction was made using SkyScanNrecon software based on a modified Feldkamp algorithm. To analyze trabecular bone, region of interest was drawn on a total of 100 slices in the region of secondary spongiosa situated 1.5 mm away from the distal border of growth plate (GP) excluding primary spongiosa and cortical bone. Quantification was done by employing Batman software encumbered with trabecular (3D) and cortical (2D) bone programs. Using μCT scans, trabecular bone mineral density (BMD) of femurs was determined from the volume of interest made for cortical and trabecular region, respectively. […] Bone mechanical strength was examined by three-point bending of femur diaphysis with bone strength tester TK […] (Muromachi Kikai Co. Ltd, Tokyo, Japan).
# Runx2 mRNA = assay: qPCR osteogenic gene expression in rat calvarial osteoblast; type: cell-based; settings: mRNA by qPCR, 48 h, active concentration of the compounds
# [3] = rat, in vivo, 250 mg/kg
# Method: LC-MS/MS-API 4000 (Q-TRAP) triple quadrupole (AB-SCIEX, Toronto, Canada). The mass spectrometer was operated using an electrospray atmospheric pressure ionization source in positive ion mode.
# a) Fingerprinting of 219/C002 Extract
# Primary stock: 1 mg/mL in DMSO
# Secondary stock: 50 ng/mL in Methanol
# Continuous injection at 10 μL/min from secondary stock.
# b) Fingerprinting of Blank Rat Plasma:
# Blood was collected from overnight fasted rats and plasma was seperated. Plasma was precipitated with methanol (1:5 v/v), vortexed and centrifuged. The supernatant was collected and diluted with methanol (1:10 v/v). Continuous injection at 10 μL/min
# c) Fingerprinting of 250 mg/kg (Oral) 219/C002 Treated Rat Plasma
# Overnight fasted rats were administered 250 mg/kg 219/C002 extract suspension orally. Blood was collected after 45 min and plasma was separated. Plasma was precipitated with methanol (1:5 v/v), vortexed and centrifuged. The supernatant was collected and diluted with methanol (1:10 v/v). Continuous injection into the column at 10 μL/min.
# The mass spectrometer [LC-MS/MS-API 4000 (Q-TRAP) triple quadrupole (AB-SCIEX, Toronto, Canada)] was used for the assay. Overnight fasted rats were administered 250 mg/kg extract suspension orally. Blood was collected after 45 min and plasma was separated. Plasma was precipitated with methanol, vortexed and centrifuged. The supernatant was collected and diluted with methanol. Continuous injection at 10 μL/min was done for extract, blank plasma and extract treated plasma.
# BMP2 mRNA = assay: qPCR osteogenic gene expression in rat calvarial osteoblast; type: cell-based; settings: mRNA by qPCR, 48 h, active concentration of the compounds
# [4] = tested on: MP treated animals (adult male SD rats); assay: MP induced secondary osteoporosis model; type: in vivo, rat; settings: MP 5 mg/Kg s.c. 1 month, MP alone or MP+219/C002 250 mg/kg, 219/F005 100 mg/kg, 219/F005-F 50 mg/kg
# Method: 50 adult male SD rats (260±20 g, 8-10 months) were divided into 5 groups. 5 mg/Kg methylprednisolone was administered subcutaneously for 1 month to induce osteoporosis. 219/C002 (250 mg/kg), 219/F005 (100 mg/Kg), 219/F005-F (50 mg/kg) treatment were given to check the efficacy of the extract and its different fraction along with methylprednisolone (n=10/group). After 1 month all rats were sacrificed and bones were collected for further experiment.
# A high-resolution X-ray micro-computed tomographic (μCT) for two-dimensional (2D) and three-dimensional (3D) assessment of bones (excised bones) were carried out using a Sky Scan 1076 μCT scanner (SkyScan, Ltd, Kartuizersweg, Kontich, Belgium). Briefly, after scanning bone samples at a nominal resolution (pixels) of 9 μm, cross-sectional reconstruction was made using SkyScanNrecon software based on a modified Feldkamp algorithm. To analyze trabecular bone, region of interest was drawn on a total of 100 slices in the region of secondary spongiosa situated 1.5 mm away from the distal border of growth plate (GP) excluding primary spongiosa and cortical bone. Quantification was done by employing Batman software encumbered with trabecular (3D) and cortical (2D) bone programs. Using μCT scans, trabecular bone mineral density (BMD) of femurs was determined from the volume of interest made for cortical and trabecular region, respectively. For calibration, hydroxyl apatite phantom rods of 4 mm of diameter with known BMD (0.25 g/cm^3 and 0.75 g/cm^3) were employed.
# Animals were kept in metabolic cages without food but with respective treatment and ad libitum water. Fasting serum samples were collected after 24 h. Serumprocollagen type I N-terminal propeptide (PINP) levels were determined by ELISA (MyBioSource, USA.), following the manufacturer's protocols.
# Bone mechanical strength was examined by three-point bending of femur diaphysis with bone strength tester TK 252C (Muromachi Kikai Co. Ltd, Tokyo, Japan).
compound,measurement,setting,value
"O=c1cc(-c2ccc(O)cc2)oc2cc(O)cc(O)c12 [219/K007, Apigenin]",Col1 expression,[1],promoted
same,osteogenic concentration,[2],(1 μM)
same,femur cortical strength (three-point bending),osteopenic mice; 6 weeks treatment,partially improve cortical strength
same,RunX2 expression,Runx2 mRNA,promoted
same,oral absorption: detection in plasma,[3],detected in extract and in extract-treated rat plasma but not in blank rat plasma
"O=c1cc(-c2ccc(O)cc2)oc2cc(O)ccc12 [219/K009, 7,4′-dihydroxy flavone]",Col1 expression,[1],promoted
same,osteogenic concentration,[2],(10 nM)
same,RunX2 expression,Runx2 mRNA,promoted
same,oral absorption: detection in plasma,[3],detected in extract and in extract-treated rat plasma but not in blank rat plasma
"O=c1cc(-c2ccc(O)c(O)c2)oc2cc(O)cc(O)c12 [219/K010, Luteolin]",osteogenic concentration,[2],(1 nM)
"O=c1cc(-c2ccc(O)c(O)c2)oc2cc(O)ccc12 [219/K011, 7,3′,4′-trihydroxy-flavone]",Col1 expression,[1],promoted
same,osteogenic concentration,[2],(10 nM)
same,BMP2 expression,BMP2 mRNA,promoted BMP2 expression
same,RunX2 expression,Runx2 mRNA,promoted
"Cc1cc(O)c2c(c1)C(=O)c1cc(O)cc(O)c1C2=O [219/K012, Emodin]",osteogenic concentration,[2],(10 nM)
"O=c1cc(-c2ccc(O)cc2)oc2cc(O)c([C@@H]3O[C@H](CO)[C@@H](O)[C@H](O)[C@H]3O)c(O)c12 [219/K017, Isovitexin]",Col1 expression,[1],promoted
same,osteogenic concentration,[2],(1 μM)
same,BMP2 expression,BMP2 mRNA,promoted BMP2 expression
same,"femur trabecular microarchitecture (BMD, BV/TV)","osteopenic mice; 5 mg/Kg, 6 weeks",completely restored femur trabecular microarchitecture
same,"bone strength of femur, higher than with 219/K007 (apigenin) treatment",osteopenic mice; 6 weeks treatment,80%
same,femur cortical strength (three-point bending),osteopenic mice; 6 weeks treatment,restored femur cortical strength
same,"total bone volume of femur, higher than with 219/K007 (apigenin) treatment",osteopenic mice; 6 weeks treatment,72%
same,RunX2 expression,Runx2 mRNA,promoted
same,oral absorption: detection in plasma,[3],detected in extract and in extract-treated rat plasma but not in blank rat plasma
"C[C@H]1C[C@@H]2[C@H]([C@@H](O)C[C@@]3(C)[C@H]2CC[C@]3(O)C(=O)CO)[C@@]2(C)C=CC(=O)C=C12 [MP, Methylprednisolone]",BMD,"[4]; mean, n=10",0.281 gm-HA/cm^3
same,BV/TV,"[4]; mean, n=10",18.33%
same,Serum PINP,"[4]; mean, n=10",50.17 ng/mL
same,Energy,[4]; femur three-point bending,75.67 mJ
same,Max power,[4]; femur three-point bending,82.17 N
same,Stiffness,[4]; femur three-point bending,108.17 N/mm
O=C(O)c1ccccn1 [Picolonic acid],oral absorption: detection in plasma,[3],detected in extract and in extract-treated rat plasma but not in blank rat plasma
